Results as given in patent US9446092B2, “Use of a neurofilament peptide for the treatment of glioma” (UNIVERSITE D'ANGERS, priority 2009, dated 2016).
Ends that are not written are not given here.

Assays:
[1] = tested on: primary human glioblastoma cells; assay: MTS assay on primary glioblastoma cells isolated after surgery; assay type: cell-based; conditions: 40 nM, 72 h
Procedure: Primary human glioblastoma cells obtained from tissue samples extracted in human brains during surgery are put in culture in a DMEM medium containing glucose, L-glutamine, 10% fetal calf serum, […] (Sigma). Cells were plated (20 000 cells per cm^2) in MW96 and let grow at 37° C. in a humidified incubator gassed with 5% CO2. The peptides and/or drugs are added 48 hours after their plating.
(§1) The effects of peptides on the proliferation of glioma cells or astrocytes were evaluated by the MTS cytotoxicity assay and by counting directly the number of cells. For the MTS assay (Promega), 500 cells were seeded in 96-well plates, incubated at 37° C. for 24 hours, and treated by the peptide at the indicated concentrations for 24, 48 and 72 hours, or with vehicle (PBS or water). Media and peptides were replaced daily. Peptides were prepared in DMEM, and paclitaxel was dissolved in DMSO at a concentration of 2 mM and further diluted into DMEM. Viability was also determined by trypan blue staining. For manual counts, cells were treated with 0.25% trypsin/0.53 mM EDTA, centrifuged, and counted with a hemacytometer following addition of trypan blue dye. At each time, 3 to 6 wells per treatment were counted.

9L glioma cells [2] = assay: Immunocytochemistry: peptide penetration and microtubule network; assay type: cell-based, rat; conditions: 10 μM, 6 h
Procedure: (§2) Cells were plated on coverslips and cultured in media containing biotinylated peptides (10 μM) for 6 hours. Following PBS washing, the cells were fixed for 10 min in 4% paraformaldehyde, and washed 3 times in PBS. They were then incubated for 10 min in a 0.5% triton X-100 permeabilization solution, washed 3 times in PBS before incubation in a blocking solution (5% BSA) for 15 min. Glioma cells and astrocytes were incubated overnight at 4° C. with mouse anti-B-tubulin antibody (Sigma) 1/200, and neurons with mouse anti-Bill-tubulin antibody 1/200. Tubulin and biotinylated peptides were localized using respectively Alexa 568 nm anti-mouse antibody and streptavidin Alexa 488 nm (Molecular Probes) 1/200 for 1 hour, followed by washing in PBS. The preparations were counterstained with 3 μM 4′6-diaminido-2-phenylindole (DAPI; Sigma) for 5 min, and washed twice with PBS. Coverslips were mounted with an antifading solution.
(§3) Observations were carried out with an Olympus confocal microscope (BX50) using Fluoview.3.1. Software or a Leica DMI6000 inverted microscope. Images were acquired with a CoolSNAP-HQ2 camera and analyzed with Metamorph 7.1.7.0. software. Cells that are positive for peptide staining and cells with destroyed microtubule network were counted. Experiments on each cell type were repeated at least three times, and minimums of 200 cells were analyzed for each experiment.

F98 glioma cells [3] = assay: as above; assay type: cell-based, rat; conditions: 10 μM, 6 h
Procedure: as §2, §3

rat primary astrocytes = assay: as above; assay type: cell-based; conditions: 10 μM, 6 h
Procedure: Rat primary astrocytes were obtained from cultures of cerebral cortex as originally described (McCarthy and de Vellis, 1980). Briefly, the cerebral cortex was dissected from newborn rats and cells were recovered after tissue homogenization, trypsination, and centrifugation. They were grown during 3 weeks in DMEM media with glucose and L-glutamine (Lonza France), containing 10% fetal calf serum (Lonza France), 1% penicillin/streptomycin (Sigma) in humidified incubator gassed with 5% CO2 (37° C.).
Cells were plated on coverslips and cultured in media containing biotinylated peptides (10 μM) for 6 hours. Following PBS washing, the cells were fixed for 10 min in 4% paraformaldehyde, and washed 3 times in PBS. They were then incubated for 10 min in a 0.5% triton X-100 permeabilization solution, washed 3 times in PBS before incubation in a blocking solution (5% BSA) for 15 min. […]
as §3, with “Software or a Leica DMI6000 inverted microscope.” left out

rat neurons = assay: as above; assay type: cell-based; conditions: 10 μM, 6 h
Procedure: Hippocampal neuronal cultures were prepared from newborn rat brains according to Ray et al. 1993 and Kaech and Banker 2006. Briefly, the hippocampi of animals younger than 2 days were recovered, minced and digested in 0.01% trypsin for one hour at 37° C. Dissociated cells were plated on coverslips precoated with 5 μg/ml poly-1-lysine and 7 μg/ml collagen at densities of 2×10^5/ml and incubated at 37° C. with a 5% CO2 atmosphere. Twenty-four hours later, the plating solution was replaced by B-27 neurobasal medium, and the second day cytosine arabinoside (20 μM) was added to eliminate non-neural cells. Experiments were performed 7 days after plating.
Cells were plated on coverslips and cultured in media containing biotinylated peptides (10 μM) for 6 hours. Following PBS washing, the cells were fixed for 10 min in 4% paraformaldehyde, and washed 3 times in PBS. […]
as §3, with “Software or a Leica DMI6000 inverted microscope.” left out

glioma cells = assay: Peptide uptake by glioma cells: temperature/energy dependence and sequence specificity; assay type: cell-based
Procedure: To evaluate the internalization of fluorescein-labeled NFL-TBS40-63 peptide by FACS, glioma cells or astrocytes were seeded in 35 mm dishes and cultured for 1 hour at 37° C. in media containing fluorescein-labeled NFL-TBS40-63 peptide at increasing concentrations or with vehicle (PBS). Cells were trypsinized, washed twice in cold PBS before incubation with trypsin (1 mg/mL) during 15 min at 37° C. To investigate a possible energy-dependant mechanism for the uptake of the peptide, cells were incubated at 4° C. with 20 μM fluorescein-labeled NFL-TBS2 peptide (after 15 min of 4° C. preincubation), or with 10 mM sodium azide in the presence of 6 mM 2-deoxy-D-glucose for 1 hour to deplete cellular ATP before addition of 20 μM fluorescence-labeled NFL-TBS2 peptide. Cells were then washed once, resuspended in 500 μl containing 50 μg/mL propidium iodide (Sigma, Saint-Quentin Fallavier, France), and analyzed with FACScalibur flow cytometer. Experiment on each cell type was repeated three times. 20,000 events per sample were analyzed in each experiment.

9L cells [4] = assay: BrdU incorporation (cell proliferation); assay type: cell-based, rat; conditions: 100 μM, 72 hours
Procedure: (§4) To assess cell proliferation, 5-bromodeoxyuridine (BrdU) immunohistochemistry was used. Cells were platted on coverslips and cultured in media containing biotinylated peptides (100 μM) for 72 hours, and incubated during 4 hours in the presence of 1 mg/mL BrdU (Sigma). Cells were then washed in PBS, fixed in 3% paraformaldehyde for 10 min and permeabilized with 1% Triton X-100 in PBS for 10 min. Cells were acidified to denature the DNA (2 N HCl, 10 min), neutralized (0.1 M sodium borate, 10 min) and then rinsed extensively in PBS. After blocking with 10% NGS (10 min) the cells were labeled with monoclonal anti-BrdU antibody (1/400) followed by Alexa 568 nm anti-mouse antibody (1/200). Nuclei were stained with 4′6-diaminido-2-phenylindole (DAPI; Sigma). […] Images were acquired with a CoolSNAP HQ2 camera and analyzed with Metamorph 7.1.7.0. software. Minimums of 200 cells were scored for BrdU incorporation, and experiments were repeated at least three times.

F98 cells [5] = assay: BrdU incorporation (cell proliferation); assay type: cell-based, rat; conditions: 100 μM, 72 hours
Procedure: as §4

rat astrocytes = assay: BrdU incorporation (cell proliferation); assay type: cell-based; conditions: 100 μM, 72 hours
Procedure: as §4

9L cells [6] = assay: Cell death analysis by flow cytometry (Annexin V / PI); assay type: cell-based, rat; conditions: 100 μM, 72 hours, Annexin V/PI FACS
Procedure: (§5) To detect possible apoptotic processes, cells were seeded in 35 mm dishes and cultured in media containing biotinylated peptides (100 μM) or PBS alone for 72 hours. Paclitaxel (40 nM) was used as a positive control to induce apoptosis (Terzis et al., 1997). Cells were then trypsinized, washed in cold PBS, and stained with Annexin V-FITC (BD Pharmingen) in Annexin buffer for 15 min at room temperature. Finally, they were counterstained with 50 μg/mL propidium iodide (Sigma) and analyzed with a FACSCalibur flow cytometer. Experiment on each cell type was repeated three times. 20,000 events per sample were analyzed in each experiment.

F98 cells [7] = assay: as above; assay type: cell-based, rat; conditions: 100 μM, 72 hours, Annexin V/PI FACS
Procedure: as §5

primary astrocytes = assay: as above; assay type: cell-based, rat; conditions: 100 μM, 72 hours, Annexin V/PI FACS
Procedure: as §5

9L glioma cells [8] = assay: MTS cytotoxicity assay; assay type: cell-based, rat; conditions: 100 μM, 72 hours
Procedure: as §1

F98 glioma cells [9] = assay: MTS cytotoxicity assay; assay type: cell-based, rat; conditions: 100 μM, 72 hours
Procedure: as §1

[10] = Non tumor-bearing (control) rats, intracerebral peptide injection; assay type: in vivo, rat

Compound: CC(=O)O[C@H]1C(=O)[C@@]2(C)[C@H]([C@H](OC(=O)c3ccccc3)[C@]3(O)C[C@H](OC(=O)[C@H](O)[C@@H](NC(=O)c4ccccc4)c4ccccc4)C(C)=C1C3(C)C)[C@]1(OC(C)=O)CO[C@@H]1C[C@@H]2O [taxol, paclitaxel]
- cell survival compared with NFL-TBS40-63 peptide (MTS) [1]: at the same level

Compound: NFL-SCR: similarly labeled scrambled peptide, control scrambled sequence of NFL-TBS40-63 (SLGSPSSSVRASYSSSRSYVYSSS; also: N-terminal label (biotin or carboxyfluorescein), not given here for this peptide)
- total cells with altered microtubule network (spherical shape, aggregated tubulin) (9L glioma cells [2]): didn't alter the microtubule network
- total cells with altered microtubule network (spherical shape, aggregated tubulin) (F98 glioma cells [3]): didn't alter the microtubule network
- cells with altered microtubule network (rat primary astrocytes): didn't alter the microtubule network
- cells with altered microtubule network (rat neurons): didn't alter the microtubule network
- internalization into glioma cells (glioma cells): absence of internalization
- inhibition of BrdU incorporation (9L cells [4]): has no effect
- inhibition of BrdU incorporation (F98 cells [5]): has no effect
- effect on proliferation (BrdU incorporation) (rat astrocytes): has no effect
- apoptotic response (9L cells [6]): has no effect
- apoptotic response (F98 cells [7]): has no effect
- apoptotic response (primary astrocytes): has no effect

Compound: YSSYSAPVSSSLSVRRSYSSSSGS [NFL-TBS40-63]
- reduction of cell viability (MTS) (9L glioma cells [8]): 30.0%±4.4
- reduction of cell viability (MTS) (F98 glioma cells [9]): 60.8%±2.8
- cellular defects in normal brain ([10]; injected in normal brain): no major cellular defects
- clinical signs of distress (weight loss, hunched posture) ([10]; non tumor-bearing rats treated with the peptide): no clinical signs of distress
- elimination of the peptide from normal brain ([10]; same procedure, days 16, 24 or 30): rapidly eliminated and was not detectable at these time points
